Assay results from ChEMBL document CHEMBL1201862, “PubChem BioAssay data set” (2004).
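Compound exposure: 48 hours, 5 concentrations, 96-well plates. GI50 = concentration required for 50% inhibition of growth.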 Calls of active or inactive are those of the source. Cut-off read from the data, not from the text of the source: active = GI50 up to about 1.1 µM and inactive = higher.

What was measured:
Test in all cases: DTP human tumour cell line panel, 48 h
SR = test system: SR
HT-29 = test system: HT-29
NCI-H522 = test system: NCI-H522
HCC 2998 = test system: HCC 2998
UACC-62 = test system: UACC-62
Malme-3M = test system: Malme-3M
SK-OV-3 = test system: SK-OV-3
HOP-92 = test system: HOP-92
M19-MEL = test system: M19-MEL
HCT-116 = test system: HCT-116
UACC-257 = test system: UACC-257
NCI-H23 = test system: NCI-H23
SF-539 = test system: SF-539
NCI-H460 = test system: NCI-H460
RXF 393 = test system: RXF 393
ACHN = test system: ACHN
OVCAR-5 = test system: OVCAR-5

Row | SMILES | GI50 (SR) | GI50 (HT-29) | GI50 (NCI-H522) | GI50 (HCC 2998) | GI50 (UACC-62) | GI50 (Malme-3M) | GI50 (SK-OV-3) | GI50 (HOP-92) | GI50 (M19-MEL) | GI50 (HCT-116) | GI50 (UACC-257) | GI50 (NCI-H23) | GI50 (SF-539) | GI50 (NCI-H460) | GI50 (RXF 393) | GI50 (ACHN) | GI50 (OVCAR-5)
1 | Cn1c2ccccc2c2cc(-c3ccccc3)c3c(c21)C(=O)c1ccccc1C3=O | 4.79 µM (inactive) | 31.9 µM (inactive) | 15.2 µM (inactive) | 48.8 µM (inactive) | 13.3 µM (inactive) | 22.3 µM (inactive) | 38.3 µM (inactive) | 12.3 µM (inactive) | 2.25 µM (inactive) | 15.8 µM (inactive) | 18 µM (inactive) | 5.79 µM (inactive) | 22.9 µM (inactive) |  |  |  | 
2 | Cc1ccc([N+](=O)[O-])cc1NC(=O)C(=O)Cc1nc2ccc(C(=O)c3ccccc3)cc2nc1O | 60 µM (inactive) | > 100 µM (inactive) | > 100 µM (inactive) | > 100 µM (inactive) | > 100 µM (inactive) | > 100 µM (inactive) | > 100 µM (inactive) | 42.2 µM (inactive) | > 100 µM (inactive) | > 100 µM (inactive) | > 100 µM (inactive) | > 100 µM (inactive) | > 100 µM (inactive) | > 100 µM (inactive) | > 100 µM (inactive) | > 100 µM (inactive) | 
3 | C=C1C(=O)OC2CC3(C)C=CC(=O)C(=C)C3CC12 (centres undefined) | 0.938 µM (active) | 1.65 µM (inactive) | 0.47 µM (active) | 2.6 µM (inactive) | 1.5 µM (inactive) | 1.99 µM (inactive) | 20.8 µM (inactive) | 1.91 µM (inactive) | 1.69 µM (inactive) | 1.28 µM (inactive) | 1.64 µM (inactive) | 1.69 µM (inactive) | 1.53 µM (inactive) | 2.59 µM (inactive) | 2.03 µM (inactive) | 1.72 µM (inactive) | 3.24 µM (inactive)
4 | CN(C(=O)c1ccc(Cl)cc1)C(=S)N1CCN(c2ccccn2)CC1 | > 100 µM (inactive) | > 100 µM (inactive) | > 100 µM (inactive) |  | > 100 µM (inactive) | > 100 µM (inactive) | > 100 µM (inactive) | 35.6 µM (inactive) | > 100 µM (inactive) | > 100 µM (inactive) | > 100 µM (inactive) | > 100 µM (inactive) | > 100 µM (inactive) | > 100 µM (inactive) | > 100 µM (inactive) | > 100 µM (inactive) | > 100 µM (inactive)
5 | COc1ccccc1NC(=O)CC(=O)N/N=C/c1ccc(N(CCC#N)S(=O)(=O)c2ccccc2)cc1 | > 100 µM (inactive) | > 100 µM (inactive) | > 100 µM (inactive) | > 100 µM (inactive) | > 100 µM (inactive) | > 100 µM (inactive) |  | > 100 µM (inactive) | > 100 µM (inactive) | > 100 µM (inactive) | > 100 µM (inactive) | > 100 µM (inactive) |  | > 100 µM (inactive) |  | > 100 µM (inactive) | > 100 µM (inactive)
6 | COC(=O)C1=Cc2c(cc(OC)c(OC)c2OC)[C@H](c2ccc(OC)c(OC)c2OC)C1C(=O)OC (some centres undefined) | 46.7 µM (inactive) | 36.1 µM (inactive) | 89.9 µM (inactive) | > 100 µM (inactive) | 54.2 µM (inactive) | > 100 µM (inactive) | > 100 µM (inactive) | 17.4 µM (inactive) | > 100 µM (inactive) | 92.3 µM (inactive) | > 100 µM (inactive) | > 100 µM (inactive) | > 100 µM (inactive) | > 100 µM (inactive) | > 100 µM (inactive) | > 100 µM (inactive) | > 100 µM (inactive)
7 | CCOP(=O)(OCC)C(C(=O)OC)C(=O)C(=O)Nc1cccc([N+](=O)[O-])c1 (centres undefined) | > 100 µM (inactive) | > 100 µM (inactive) | > 100 µM (inactive) | > 100 µM (inactive) | > 100 µM (inactive) | > 100 µM (inactive) | > 100 µM (inactive) |  | > 100 µM (inactive) | > 100 µM (inactive) | > 100 µM (inactive) | > 100 µM (inactive) | > 100 µM (inactive) | > 100 µM (inactive) | > 100 µM (inactive) | > 100 µM (inactive) | > 100 µM (inactive)
8 | COC(=O)C1C(/C=C/c2ccoc2)ON2CCC[C@@H]12 (some centres undefined) | > 100 µM (inactive) | > 100 µM (inactive) | > 100 µM (inactive) | > 100 µM (inactive) |  | 33.6 µM (inactive) |  | > 100 µM (inactive) | > 100 µM (inactive) |  | > 100 µM (inactive) | > 100 µM (inactive) | > 100 µM (inactive) | > 100 µM (inactive) | 47.8 µM (inactive) | 67.8 µM (inactive) | > 100 µM (inactive)
9 | Oc1ccc2c(O)cc(-c3ccccc3)nc2c1 | 38.1 µM (inactive) | 23.3 µM (inactive) | 27 µM (inactive) | 34 µM (inactive) | 19.9 µM (inactive) | 34.4 µM (inactive) | 28.4 µM (inactive) | 29.3 µM (inactive) | 19.5 µM (inactive) | 17.4 µM (inactive) | 21.7 µM (inactive) | 36.4 µM (inactive) | 37.2 µM (inactive) | 17.8 µM (inactive) | 6.22 µM (inactive) | 21.4 µM (inactive) | 58.9 µM (inactive)
10 | CN(C)c1ccc(C(=C(c2ccc(N(C)C)cc2)c2ccc(N(C)C)cc2)c2ccc(N(C)C)cc2)cc1 | 9.04 µM (inactive) | 13.8 µM (inactive) | 0.301 µM (active) | 16 µM (inactive) | 18.8 µM (inactive) | 15 µM (inactive) | 20.8 µM (inactive) |  | 26.5 µM (inactive) | 13.4 µM (inactive) | 17.3 µM (inactive) | 17 µM (inactive) | 13.8 µM (inactive) | 15.8 µM (inactive) | 11.7 µM (inactive) | 11.5 µM (inactive) | > 100 µM (inactive)
11 | C[n+]1c2n(c3nc(N)[nH]c(=O)c31)C1OC(C2)C(O)C1O (centres undefined) | > 100 µM (inactive) | > 100 µM (inactive) | > 100 µM (inactive) | > 100 µM (inactive) | > 100 µM (inactive) | > 100 µM (inactive) | > 100 µM (inactive) | > 100 µM (inactive) | > 100 µM (inactive) | > 100 µM (inactive) | > 100 µM (inactive) | > 100 µM (inactive) | > 100 µM (inactive) |  | > 100 µM (inactive) | > 100 µM (inactive) | > 100 µM (inactive)
12 | Cc1ccc(S(=O)OC2C3CC4CC(C3)CC2C4)cc1 (centres undefined) | > 100 µM (inactive) | > 100 µM (inactive) | > 100 µM (inactive) | > 100 µM (inactive) | > 100 µM (inactive) | > 100 µM (inactive) | > 100 µM (inactive) | > 100 µM (inactive) | > 100 µM (inactive) | > 100 µM (inactive) | > 100 µM (inactive) | > 100 µM (inactive) | > 100 µM (inactive) | > 100 µM (inactive) | > 100 µM (inactive) | > 100 µM (inactive) | > 100 µM (inactive)
13 | COc1ccc(-c2c(N)[n+]([O-])c3ccccc3[n+]2[O-])cc1OC | > 100 µM (inactive) | > 100 µM (inactive) | > 100 µM (inactive) |  |  | > 100 µM (inactive) | > 100 µM (inactive) | > 100 µM (inactive) | > 100 µM (inactive) | > 100 µM (inactive) | > 100 µM (inactive) | > 100 µM (inactive) | > 100 µM (inactive) | > 100 µM (inactive) |  | > 100 µM (inactive) | > 100 µM (inactive)
14 | Nn1c(CCCl)nc2c(Br)cc(Br)cc2c1=O | 20.3 µM (inactive) | 32.7 µM (inactive) | 15.9 µM (inactive) | 40.2 µM (inactive) | 31.9 µM (inactive) | > 69.5 µM (inactive) | 33.1 µM (inactive) | 33 µM (inactive) | 32.1 µM (inactive) | 25.3 µM (inactive) | 34.9 µM (inactive) | 24 µM (inactive) | 40.7 µM (inactive) | 25.3 µM (inactive) | 36.1 µM (inactive) | 22.9 µM (inactive) | 30.1 µM (inactive)
15 | CC1(C)OCN(c2ccc(S(N)(=O)=O)cc2)Cn2c1nc1ccccc12 | > 100 µM (inactive) | > 100 µM (inactive) | > 100 µM (inactive) | > 100 µM (inactive) | > 100 µM (inactive) | > 100 µM (inactive) | > 100 µM (inactive) | > 100 µM (inactive) | > 100 µM (inactive) | > 100 µM (inactive) | > 100 µM (inactive) | > 100 µM (inactive) | > 100 µM (inactive) | > 100 µM (inactive) | > 100 µM (inactive) | > 100 µM (inactive) | 
16 | Cc1ccc(C(c2c(O)c3ccccc3n(-c3ccccc3)c2=O)c2c(O)c3ccccc3n(-c3ccccc3)c2=O)cc1 | 62.4 µM (inactive) |  | > 100 µM (inactive) | > 100 µM (inactive) |  | > 100 µM (inactive) |  | > 100 µM (inactive) | > 100 µM (inactive) | > 100 µM (inactive) |  | > 100 µM (inactive) | > 100 µM (inactive) |  | 53.2 µM (inactive) | 89.3 µM (inactive) | > 100 µM (inactive)
17 | C=CC(=O)N1C/C(=C\c2ccc(Cl)c(Cl)c2)C(=O)/C(=C/c2ccc(Cl)c(Cl)c2)C1 | 0.0259 µM (active) | 0.0673 µM (active) | 0.149 µM (active) | 0.204 µM (active) | 0.298 µM (active) |  | 0.378 µM (active) | 1.19 µM (inactive) | 0.184 µM (active) | 0.0612 µM (active) | 0.474 µM (active) | 0.2 µM (active) | 0.181 µM (active) | 0.152 µM (active) | 0.148 µM (active) | 0.169 µM (active) | 0.294 µM (active)
